Values quoted from earlier work in US12029740B2 (NANOCOPOEIA, LLC, priority 2020, dated 2024).
Counter-ions that a name gives are not always drawn.

Assays:
[1] = low/moderate aqueous solubility and low permeability

Cc1cn(-c2cc(NC(=O)c3ccc(C)c(Nc4nccc(-c5cccnc5)n4)c3)cc(C(F)(F)F)c2)cn1 [nilotinib, 4-methyl-N-[3-(4-methyl-1H-imidazol-1-yl)-5-(trifluoromethyl)phenyl]-3-[[4-(3-pyridinyl)-2-pyrimidinyl]amino]-benzamide]
solubility with increasing pH: significantly decreases

Cc1cn(-c2cc(NC(=O)c3ccc(C)c(Nc4nccc(-c5cccnc5)n4)c3)cc(C(F)(F)F)c2)cn1 [Nilotinib monohydrochloride monohydrate]
Biopharmaceutical Classification System (BCS) class [1]: Class IV
